Data reported in patent US4393225A, “AI-77 Compounds and pharmaceutically acceptable salts thereof” (Asahi Kasei Kogyo Kabushiki Kaisha, priority 1979, dated 1983).
Read-outs that look alike come from different tables or passages of the source.

Tested on: ulcer
Experiment: Anti-ulcer test (restraint and water immersion ulcer in rats, i.p.)
Assay type: in vivo, Male Wistar rats
Settings: Rattus norvegicus, ip, read-out: % Inhibition of Ulcer
Procedure, shortened: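 Compound given intraperitoneally in saline to 24 h-fasted male Wistar rats about 150 g, followed after one hour by 6 h restraint with water immersion at 21 °C. Gastric lesions graded 0, 0.5, 1, 2 or 3 on microscopic inspection and converted to percent ulcer inhibition.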

CCCCOc1cccc2c1C(=O)OC(C(CC(C)C)NC(=O)C(O)C(O)C(CC(=O)NC)NCC)C2 (stereo not shown) [VII-14-1]
inhibition in vivo at 25 mg/kg (25 mg/kg i.p.): 72%

CCNC(CC(N)=O)C(O)C(O)C(=O)NC(CC(C)C)C1Cc2cccc(OC)c2C(=O)O1 (stereo not shown) [VII-14-2]
inhibition in vivo at 25 mg/kg (25 mg/kg i.p.): 83%

CCNC(=O)CC(NCC)C(O)C(OC(=O)CC)C(=O)NC(CC(C)C)C1Cc2cccc(OC)c2C(=O)O1 (stereo not shown) [VII-15-4]
inhibition in vivo at 25 mg/kg (25 mg/kg i.p.): 44%

CCNC(CC(N)=O)C(O)C(OC)C(=O)NC(CC(C)C)C1Cc2cccc(OCC)c2C(=O)O1 (stereo not shown) [VII-16-1]
inhibition in vivo at 25 mg/kg: 56%

CCCCOc1cccc2c1C(=O)OC(C(CC(C)C)NC(=O)C(OC)C(O)C(CC(=O)NCC)NCC)C2 (stereo not shown) [VII-16-4]
inhibition in vivo at 25 mg/kg (25 mg/kg i.p.): 44%

CCCCOC(C(=O)NC(CC(C)C)C1Cc2cccc(O)c2C(=O)O1)C(O)C(CC(N)=O)NCC (stereo not shown) [VII-17-1]
inhibition in vivo at 25 mg/kg (25 mg/kg i.p.): 78%

CCCCCCCCCCCCCCCCCCNC(CC(N)=O)C(O)C(OCCCC)C(=O)NC(CC(C)C)C1Cc2cccc(O)c2C(=O)O1 (stereo not shown) [VII-17-2]
inhibition in vivo at 25 mg/kg (25 mg/kg i.p.): 56%

CCNC(CC(N)=O)C(O)C(OC)C(=O)NC(CC(C)C)C1Cc2cccc(O)c2C(=O)O1 (stereo not shown) [VII-17-3]
inhibition in vivo at 25 mg/kg (25 mg/kg i.p.): 89%

CCCCOC(C(=O)NC(CC(C)C)C1Cc2cccc(OC(C)=O)c2C(=O)O1)C(O)C(CC(N)=O)NCC (stereo not shown) [VII-18-1]
inhibition in vivo at 25 mg/kg (25 mg/kg i.p.): 66%

CCNC(CC(N)=O)C(O)C(OC)C(=O)NC(CC(C)C)C1Cc2cccc(OC(=O)C(C)C)c2C(=O)O1 (stereo not shown) [VII-18-3]
inhibition in vivo at 25 mg/kg (25 mg/kg i.p.): 56%

CNC(CC(N)=O)C(O)C(O)C(=O)NC(CC(C)C)C1Cc2cccc(O)c2C(=O)O1 (stereo not shown) [VII-19-1]
inhibition in vivo at 25 mg/kg (25 mg/kg i.p.): 100%

CNC(CC(N)=O)C(O)C(OC(C)=O)C(=O)NC(CC(C)C)C1Cc2cccc(O)c2C(=O)O1 (stereo not shown) [VII-20-1]
inhibition in vivo at 25 mg/kg (25 mg/kg i.p.): 89%

CNC(CC(N)=O)C(O)C(OC(=O)CC(C)C)C(=O)NC(CC(C)C)C1Cc2cccc(O)c2C(=O)O1 (stereo not shown) [VII-20-2]
inhibition in vivo at 25 mg/kg (25 mg/kg i.p.): 66%

CNC(CC(N)=O)C(O)C(OC(C)=O)C(=O)NC(CC(C)C)C1Cc2cccc(OC(C)=O)c2C(=O)O1 (stereo not shown) [VII-21-1]
inhibition in vivo at 25 mg/kg (25 mg/kg i.p.): 66%

CNC(CC(N)=O)C(O)C(O)C(=O)NC(CC(C)C)C1Cc2cccc(OC(C)=O)c2C(=O)O1 (stereo not shown) [VII-22-1]
inhibition in vivo at 25 mg/kg (25 mg/kg i.p.): 78%

CCOc1cccc2c1C(=O)OC(C(CC(C)C)NC(=O)C(O)C(O)C(CC(N)=O)NC)C2 (stereo not shown) [VII-23-1]
inhibition in vivo at 25 mg/kg (25 mg/kg i.p.): 89%

CCCCNC(=O)CC(NC)C(O)C(O)C(=O)NC(CC(C)C)C1Cc2cccc(OCC)c2C(=O)O1 (stereo not shown) [VII-23-2]
inhibition in vivo at 25 mg/kg (25 mg/kg i.p.): 66%

CNC(CC(N)=O)C(O)C(O)C(=O)NC(CC(C)C)C1Cc2cccc(OC)c2C(=O)O1 (stereo not shown) [VII-23-5]
inhibition in vivo at 25 mg/kg (25 mg/kg i.p.): 89%

CCOc1cccc2c1C(=O)OC(C(CC(C)C)NC(=O)C(OC(C)=O)C(O)C(CC(N)=O)NC)C2 (stereo not shown) [VII-24-1]
inhibition in vivo at 25 mg/kg (25 mg/kg i.p.): 66%

CCOc1cccc2c1C(=O)OC(C(CC(C)C)NC(=O)C(OC(=O)C(C)C)C(O)C(CC(N)=O)NC)C2 (stereo not shown) [VII-24-2]
inhibition in vivo at 25 mg/kg (25 mg/kg i.p.): 66%

CCCCOC(C(=O)NC(CC(C)C)C1Cc2cccc(OC)c2C(=O)O1)C(O)C(CC(N)=O)NC (stereo not shown) [VII-25-1]
inhibition in vivo at 25 mg/kg (25 mg/kg i.p.): 66%

CCCCOc1cccc2c1C(=O)OC(C(CC(C)C)NC(=O)C(OCCCC)C(O)C(CC(N)=O)NC)C2 (stereo not shown) [VII-25-3]
inhibition in vivo at 25 mg/kg (25 mg/kg i.p.): 56%

CNC(CC(N)=O)C(O)C(OC)C(=O)NC(CC(C)C)C1Cc2cccc(O)c2C(=O)O1 (stereo not shown) [VII-26-1]
inhibition in vivo at 25 mg/kg (25 mg/kg i.p.): 89%

CNC(CC(N)=O)C(O)C(OC)C(=O)NC(CC(C)C)C1Cc2cccc(OC(C)=O)c2C(=O)O1 (stereo not shown) [VII-27-1]
inhibition in vivo at 25 mg/kg (25 mg/kg i.p.): 66%

CC(=O)NC(CC(N)=O)C(O)C(O)C(=O)NC(CC(C)C)C1Cc2cccc(O)c2C(=O)O1 (stereo not shown) [VII-28-1]
inhibition in vivo at 25 mg/kg (25 mg/kg i.p.): 78%

CC(C)CC(NC(=O)C(O)C(O)C(CC(N)=O)NC(=O)C(C)C)C1Cc2cccc(O)c2C(=O)O1 (stereo not shown) [VII-28-2]
inhibition in vivo at 25 mg/kg: 78%

CCCCCCCC(=O)NC(CC(N)=O)C(O)C(O)C(=O)NC(CC(C)C)C1Cc2cccc(O)c2C(=O)O1 (stereo not shown) [VII-28-3]
inhibition in vivo at 25 mg/kg (25 mg/kg i.p.): 66%

CCCCCCCCCCCCCCCCCC(=O)NC(CC(=O)NCC)C(O)C(O)C(=O)NC(CC(C)C)C1Cc2cccc(O)c2C(=O)O1 (stereo not shown) [VII-28-4]
inhibition in vivo at 25 mg/kg (25 mg/kg i.p.): 66%

CCC(=O)OC(C(=O)NC(CC(C)C)C1Cc2cccc(O)c2C(=O)O1)C(O)C(CC(=O)NC)NC(C)=O (stereo not shown) [VII-29-1]
inhibition in vivo at 25 mg/kg: 66%

CC(=O)NC(CC(N)=O)C(O)C(O)C(=O)NC(CC(C)C)C1Cc2cccc(OC(C)=O)c2C(=O)O1 (stereo not shown) [VII-31-1]
inhibition in vivo at 25 mg/kg (25 mg/kg i.p.): 89%

CCCCOc1cccc2c1C(=O)OC(C(CC(C)C)NC(=O)C(O)C(O)C(CC(=O)NCC)NC(C)=O)C2 (stereo not shown) [VII-32-1]
inhibition in vivo at 25 mg/kg (25 mg/kg i.p.): 66%

CCC(=O)OC(C(=O)NC(CC(C)C)C1Cc2cccc(OC)c2C(=O)O1)C(O)C(CC(N)=O)NC(C)=O (stereo not shown) [VII-33-1]
inhibition in vivo at 25 mg/kg (25 mg/kg i.p.): 66%

CCCCOc1cccc2c1C(=O)OC(C(CC(C)C)NC(=O)C(OC)C(O)C(CC(N)=O)NC(C)=O)C2 (stereo not shown) [VII-34-1]
inhibition in vivo at 25 mg/kg (25 mg/kg i.p.): 66%

CCNC(=O)CC(NC(C)=O)C(O)C(OC)C(=O)NC(CC(C)C)C1Cc2cccc(O)c2C(=O)O1 (stereo not shown) [VII-35-1]
inhibition in vivo at 25 mg/kg (25 mg/kg i.p.): 66%
